{"source": "patent US8822467B2", "about": "(Ligand Pharmaceuticals Inc., priority 2009, dated 2014)"}
{"target": "T1, human CRTH2 (Homo sapiens, UniProt Q9Y5Y4)", "T1 construct": "expressed in transfected cells", "T1 sequence (Q9Y5Y4 1-395)": "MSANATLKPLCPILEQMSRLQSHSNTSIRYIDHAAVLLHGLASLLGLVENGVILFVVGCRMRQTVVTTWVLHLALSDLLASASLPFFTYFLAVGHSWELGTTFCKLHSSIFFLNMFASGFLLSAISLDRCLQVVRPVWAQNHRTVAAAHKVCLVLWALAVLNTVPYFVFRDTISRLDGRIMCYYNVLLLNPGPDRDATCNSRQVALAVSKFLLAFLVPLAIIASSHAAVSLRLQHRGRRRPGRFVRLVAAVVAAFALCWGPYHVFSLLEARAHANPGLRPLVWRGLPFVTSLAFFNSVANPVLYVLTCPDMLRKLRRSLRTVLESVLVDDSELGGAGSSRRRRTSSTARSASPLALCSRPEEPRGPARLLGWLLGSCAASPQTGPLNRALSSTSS", "assay": "[35S]GTPγS binding assay (SPA) on membranes from CHO-K1 cells stably expressing human CRTH2, stimulated with 60 nM DHK-PGD2", "format": "biochemical", "conditions": "membranes of CHO-K1 cells expressing human CRTH2; 60 nM DHK-PGD2; Table 1; read-out: CRTH2 hGTPγS IC50", "description": "(§1) [^35S]GTPγS Binding Assay\n(§2) SPA [^35S]G-TPγS binding was performed on membranes from CHO-K1 cells stably expressing human CRTH2. To a white, clear-bottomed 384-well plate, 4 μg membrane protein was incubated in the binding buffer (20 mM HEPES, pH 7.4, 10 mM MgCl2, 300 mM NaCl, 0.2% BSA) with 60 nM DHK-PGD2, 500 pM [^35S]GTPγS, 10 μM GDP, and 100 μg wheat germ agglutinin-coupled SPA beads (GE Healthcare) with and without increasing concentrations of compounds. The final assay volume was 40 μL and contained 1% DMSO. Samples were incubated for 2 h at ambient temperature. Plates were centrifuged 5 min at 1500 rpm. Plates were read after an additional 4 h using the Trilux 1450 Microbeta (PerkinElmer) with a 30 sec/well reading time.", "units": {"IC50": "nM"}}
{"smiles": "CN(Cc1ccc(OCC(=O)O)c(-c2cccc(C#N)c2)c1)S(=O)(=O)c1cc(F)cc(F)c1", "note": "[Example 97, 2-(3-cyanophenyl)-4-((3,5-difluoro-N-methylphenylsulfonamido)methyl)phenoxyacetic acid]", "IC50": 43}
{"smiles": "O=C(O)COc1ccc(CNS(=O)(=O)c2ccc(F)cc2)cc1-c1cccc(C(F)(F)F)c1", "note": "[Example 110]", "IC50": 169}
{"target": "T1, human CRTH2", "assay": "[35S]GTPγS binding assay (SPA) on membranes from CHO-K1 cells stably expressing human CRTH2, stimulated with 60 nM DHK-PGD2", "format": "biochemical", "conditions": "potency class symbols; Table 2; read-out: CRTH2 hGTPγS IC50", "description": "as §1, §2", "units": {"IC50": "nM"}}
{"smiles": "CN(Cc1ccc(OCC(=O)O)c(-c2cccc(C(F)(F)F)c2)c1)S(=O)(=O)c1ccc(F)c(F)c1", "note": "[Example 91, 2-(3-trifluoromethylphenyl)-4-((3,4-difluoro-N-methylphenylsulfonamido)methyl)phenoxyacetic acid]", "IC50": "< 100"}
{"smiles": "Cc1ccc(S(=O)(=O)N(C)Cc2ccc(OCC(=O)O)c(-c3cccc(C#N)c3)c2)cc1F", "note": "[Example 92, 2-(3-cyanophenyl)-4-((3-fluoro-4-methyl-N-methylphenylsulfonamido)methyl)phenoxyacetic acid]", "IC50": "< 100"}
{"smiles": "CC(c1ccc(OCC(=O)O)c(-c2cccc(C(F)(F)F)c2)c1)N(C)S(=O)(=O)c1ccc(F)c(F)c1", "note": "(stereo not shown) [Example 93, 2-(3-trifluoromethylphenyl)-4-(1-(3,4-difluoro-N-methylphenylsulfonamido)ethyl)phenoxyacetic acid]", "IC50": "< 100"}
{"smiles": "CN(Cc1ccc(OCC(=O)O)c(-c2cccc(S(C)(=O)=O)c2)c1)S(=O)(=O)c1ccccc1F", "note": "[Example 94, 2-(3-methylsulfonylphenyl)-4-((2-fluoro-N-methylphenylsulfonamido)methyl)phenoxyacetic acid]", "IC50": "< 100"}
{"smiles": "CN(Cc1ccc(OCC(=O)O)c(-c2cccc(C(F)(F)F)c2)c1)S(=O)(=O)c1ccc(F)cc1", "note": "[Example 95, 2-(3-trifluoromethylphenyl)-4-((4-fluoro-N-methylphenylsulfonamido)methyl)phenoxyacetic acid]", "IC50": "< 100"}
{"smiles": "COc1cc(F)cc(-c2cc(CN(C)S(=O)(=O)c3ccc(F)cc3)ccc2OCC(=O)O)c1", "note": "[Example 96, 2-(3-methoxy-5-fluorophenyl)-4-((4-fluoro-N-methylphenylsulfonamido)methyl)phenoxyacetic acid]", "IC50": "< 100"}
{"smiles": "CN(Cc1ccc(OCC(=O)O)c(-c2cccc(C#N)c2)c1)S(=O)(=O)c1cc(F)cc(F)c1", "note": "[Example 97, 2-(3-cyanophenyl)-4-((3,5-difluoro-N-methylphenylsulfonamido)methyl)phenoxyacetic acid]", "IC50": "< 100"}
{"smiles": "CN(Cc1cc(-c2cccc(C#N)c2)c(OCC(=O)O)cc1F)S(=O)(=O)c1ccccc1", "note": "[Example 98, 2-(3-cyanophenyl)-4-((N-methylphenylsulfonamido)methyl)-5-fluorophenoxyacetic acid]", "IC50": "< 100"}
{"smiles": "CN(Cc1ccc(OCC(=O)O)c(-c2cccc(C#N)c2)c1)S(=O)(=O)c1cc(F)cc(Cl)c1", "note": "[Example 99, 2-(3-cyanophenyl)-4-((3-chloro-5-fluoro-N-methylphenylsulfonamido)methyl)phenoxyacetic acid]", "IC50": "< 100"}
{"smiles": "CC(C)Oc1cc(F)cc(-c2cc(CN(C)S(=O)(=O)c3ccc(F)cc3)ccc2OCC(=O)O)c1", "note": "[Example 100, 2-(3-isopropoxy-5-fluorophenyl)-4-((4-fluoro-N-methylphenylsulfonamido)methyl)phenoxyacetic acid]", "IC50": "< 100"}
{"smiles": "CN(Cc1ccc(OCC(=O)O)c(-c2ccc3ccn(C)c3c2)c1)S(=O)(=O)c1ccc(F)cc1", "note": "[Example 101, 2-(1-methyl-indol-6-yl)-4-((4-fluoro-N-methylphenylsulfonamido)methyl)phenoxyacetic acid]", "IC50": "< 100"}
{"smiles": "CN(Cc1ccc(OCC(=O)O)c(-c2cccc(C#N)c2)c1)S(=O)(=O)c1cccc(C(F)(F)F)c1", "note": "[Example 102, 2-(3-cyanophenyl)-4-((3-trifluoromethyl-N-methylphenylsulfonamido)methyl)phenoxyacetic acid]", "IC50": "100 to 1000"}
{"smiles": "COc1cc(S(=O)(=O)N(C)Cc2ccc(OCC(=O)O)c(-c3cccc(C#N)c3)c2)ccc1F", "note": "[Example 103, 2-(3-cyanophenyl)-4-((3-methoxy-4-fluoro-N-methylphenylsulfonamido)methyl)phenoxyacetic acid]", "IC50": "100 to 1000"}
{"smiles": "COc1ccc(S(=O)(=O)N(C)Cc2ccc(OCC(=O)O)c(-c3cccc(C#N)c3)c2)cc1", "note": "[Example 104, 2-(3-cyanophenyl)-4-((4-methoxy-N-methylphenylsulfonamido)methyl)phenoxyacetic acid]", "IC50": "100 to 1000"}
{"smiles": "CN(Cc1ccc(OCC(=O)O)c(-c2cccc(C(N)=O)c2)c1)S(=O)(=O)c1ccc(F)cc1", "note": "[Example 105, 2-(3-aminocarbonylphenyl)-4-((4-fluoro-N-methylphenylsulfonamido)methyl)phenoxyacetic acid]", "IC50": "100 to 1000"}
{"smiles": "CN(Cc1ccc(OCC(=O)O)c(-c2cc(F)cc(F)c2)c1)S(=O)(=O)c1ccc(F)cc1", "note": "[Example 106, 2-(3,5-difluorophenyl)-4-((4-fluoro-N-methylphenylsulfonamido)methyl)phenoxyacetic acid]", "IC50": "100 to 1000"}
{"smiles": "CN(Cc1ccc(OCC(=O)O)c(-c2cccc(C(F)(F)F)c2)c1)S(=O)(=O)c1ccc(F)cc1F", "note": "[Example 107, 2-(3-trifluoromethylphenyl)-4-((2,4-difluoro-N-methylphenylsulfonamido)methyl)phenoxyacetic acid]", "IC50": "100 to 1000"}
{"smiles": "CN(Cc1ccc(OCC(=O)O)c(-c2cncc(C#N)c2)c1)S(=O)(=O)c1ccc(F)cc1", "note": "[Example 108, 2-(3-cyano-5-pyridinyl)-4-((4-fluoro-N-methylphenylsulfonamido)methyl)phenoxyacetic acid]", "IC50": "100 to 1000"}
{"smiles": "Cc1ccc(S(=O)(=O)N(C)Cc2ccc(OCC(=O)O)c(-c3cccc(C#N)c3)c2)cc1", "note": "[Example 109, 2-(3-cyanophenyl)-4-((4-methyl-N-methylphenylsulfonamido)methyl)phenoxyacetic acid]", "IC50": "100 to 1000"}
{"smiles": "O=C(O)COc1ccc(CNS(=O)(=O)c2ccc(F)cc2)cc1-c1cccc(C(F)(F)F)c1", "note": "[Example 110]", "IC50": "100 to 1000"}
{"smiles": "CN(Cc1ccc(OCC(=O)O)c(-c2cccc(C(F)(F)F)c2)c1)S(=O)(=O)c1cccc(Cl)c1", "note": "[Example 111, 2-(3-trifluoromethylphenyl)-4-((3-chloro-N-methylphenylsulfonamido)methyl)phenoxyacetic acid]", "IC50": "100 to 1000"}
{"smiles": "CCOc1cc(F)cc(-c2cc(CN(C)S(=O)(=O)c3ccc(F)cc3)ccc2OCC(=O)O)c1", "note": "[Example 112, 2-(3-ethoxy-5-fluorophenyl)-4-((4-fluoro-N-methylphenylsulfonamido)methyl)phenoxyacetic acid]", "IC50": "100 to 1000"}
{"smiles": "CCN(Cc1ccc(OCC(=O)O)c(-c2cccc(C(F)(F)F)c2)c1)S(=O)(=O)c1ccc(F)c(F)c1", "note": "[Example 113, 2-(3-trifluoromethylphenyl)-4-((3,4-difluoro-N-ethylphenylsulfonamido)methyl)phenoxyacetic acid]", "IC50": "100 to 1000"}
{"smiles": "COCc1cccc(-c2cc(CN(C)S(=O)(=O)c3ccc(F)cc3)ccc2OCC(=O)O)c1", "note": "[Example 114, 2-(3-methoxymethylphenyl)-4-((4-fluoro-N-methylphenylsulfonamido)methyl)phenoxyacetic acid]", "IC50": "100 to 1000"}
{"smiles": "CN(Cc1ccc(OCC(=O)O)c(-c2cc(C(F)(F)F)ccc2Cl)c1)S(=O)(=O)c1ccc(F)cc1", "note": "[Example 115, 2-(2-chloro-5-trifluoromethylphenyl)-4-((4-fluoro-N-methylphenylsulfonamido)methyl)phenoxyacetic acid]", "IC50": "100 to 1000"}
{"smiles": "CN(Cc1ccc(OCC(=O)O)c(-c2cccc(C(F)(F)F)c2)c1)S(=O)(=O)c1ccc(Cl)cc1", "note": "[Example 116, 2-(3-trifluoromethylphenyl)-4-((4-chloro-N-methylphenylsulfonamido)methyl)phenoxyacetic acid]", "IC50": "100 to 1000"}
{"smiles": "CC(C)c1cccc(-c2cc(CN(C)S(=O)(=O)c3ccc(F)cc3)ccc2OCC(=O)O)c1", "note": "[Example 117, 2-(3-isopropylphenyl)-4-((4-fluoro-N-methylphenylsulfonamido)methyl)phenoxyacetic acid]", "IC50": "100 to 1000"}
{"smiles": "CN(Cc1ccc(OCC(=O)O)c(-c2cc(F)ccc2F)c1)S(=O)(=O)c1ccc(F)cc1", "note": "[Example 118, 2-(2,5-difluorophenyl)-4-((4-fluoro-N-methylphenylsulfonamido)methyl)phenoxyacetic acid]", "IC50": "100 to 1000"}
{"smiles": "CN(Cc1ccc(OCC(=O)O)c(-c2cncc(C(F)(F)F)c2)c1)S(=O)(=O)c1ccc(F)cc1", "note": "[Example 119, 2-(3-trifluoromethyl-5-pyridinyl)-4-((4-fluoro-N-methylphenylsulfonamido)methyl)phenoxyacetic acid]", "IC50": "100 to 1000"}
{"smiles": "CN(Cc1ccc(OCC(=O)O)c(-c2cccc(C(F)(F)F)c2)c1)S(=O)(=O)c1ccc(C#N)cc1", "note": "[Example 120, 2-(3-trifluoromethylphenyl)-4-((4-cyano-N-methylphenylsulfonamido)methyl)phenoxyacetic acid]", "IC50": "100 to 1000"}
{"smiles": "COc1ccc(S(=O)(=O)N(C)Cc2ccc(OCC(=O)O)c(-c3cccc(C(F)(F)F)c3)c2)cc1", "note": "[Example 121, 2-(3-trifluoromethylphenyl)-4-((4-methoxy-N-methylphenylsulfonamido)methyl)phenoxyacetic acid]", "IC50": "100 to 1000"}
{"smiles": "CN(Cc1ccc(OCC(=O)O)c(-c2cccc(F)c2F)c1)S(=O)(=O)c1ccc(F)cc1", "note": "[Example 122, 2-(2,3-difluorophenyl)-4-((4-fluoro-N-methylphenylsulfonamido)methyl)phenoxyacetic acid]", "IC50": "100 to 1000"}
